Measured values taken from paper PMC8815882, “Screening the pandemic response box identified benzimidazole carbamates, Olorofim and ravuconazole as promising drug candidates for the treatment of eumycetoma” (PLoS Neglected Tropical Diseases, 2022).
Read-outs that look alike come from different tables or passages of the source.

System: M. mycetomatis genome strain MM55
Experiment: CLSI M38-A2 based in vitro susceptibility screening (XTT or resazurin), growth at fixed concentration
Format: cell-based, Madurella mycetomatis
Conditions: Madurella mycetomatis; for Percent fungal survival at 100 µM: read-out: Percentage survival at 100um, 100 uM A (second replicate column)
[1] = mean of three, M. mycetomatis MM55, read-out: Percentage survival at 25um, 25 uM mean
[2] = replicate A, M. mycetomatis MM55, read-out: Percentage survival at 25um, 25 um A
[3] = replicate B, M. mycetomatis MM55, read-out: Percentage survival at 25um, 25 uM B
[4] = replicate C, M. mycetomatis MM55, read-out: Percentage survival at 25um, 25 uM C
[5] = mean of three, M. mycetomatis MM55, read-out: Percentage survival at 100um, 100 uM mean
[6] = replicate 1, M. mycetomatis MM55, read-out: Percentage survival at 100um, 100 uM A (first replicate column)
[7] = replicate 2, M. mycetomatis MM55
[8] = replicate 3, M. mycetomatis MM55, read-out: Percentage survival at 100um, 100 uM A (third replicate column)
[9] = mean of three replicates, read-out: Percentage survival at 25um, 25 uM mean
[10] = replicate A, read-out: Percentage survival at 25um, 25 um A
[11] = replicate B, read-out: Percentage survival at 25um, 25 uM B
[12] = replicate C, read-out: Percentage survival at 25um, 25 uM C
[13] = mean of three replicates, read-out: Percentage survival at 100um, 100 uM mean
[14] = replicate 1, read-out: Percentage survival at 100um, 100 uM A (first replicate column)
[15] = replicate 3, read-out: Percentage survival at 100um, 100 uM A (third replicate column)
[16] = mean of replicates, read-out: Percentage survival at 25um, 25 uM mean
[17] = mean of replicates, read-out: Percentage survival at 100um, 100 uM mean
[18] = replicate 1, read-out: Percentage survival at 100um, 100 uM A
[19] = replicate 2, read-out: Percentage survival at 100um, 100 uM A
[20] = replicate 3, read-out: Percentage survival at 100um, 100 uM A
[21] = first replicate column, read-out: Percentage survival at 100um, 100 uM A
[22] = second replicate column, read-out: Percentage survival at 100um, 100 uM A
[23] = third replicate column, read-out: Percentage survival at 100um, 100 uM A
[24] = mean of replicates, MM55, read-out: Percentage survival at 25um, 25 uM mean
[25] = replicate A, MM55, read-out: Percentage survival at 25um, 25 um A
[26] = replicate B, MM55, read-out: Percentage survival at 25um, 25 uM B
[27] = replicate C, MM55, read-out: Percentage survival at 25um, 25 uM C
[28] = mean of replicates, MM55, read-out: Percentage survival at 100um, 100 uM mean
[29] = replicate 1, MM55, read-out: Percentage survival at 100um, 100 uM A
[30] = replicate 2, MM55, read-out: Percentage survival at 100um, 100 uM A
[31] = replicate 3, MM55, read-out: Percentage survival at 100um, 100 uM A
[32] = mean, read-out: Percentage survival at 25um, 25 uM mean
[33] = mean, read-out: Percentage survival at 100um, 100 uM mean
[34] = replicate (first column), read-out: Percentage survival at 100um, 100 uM A
[35] = replicate (second column), read-out: Percentage survival at 100um, 100 uM A
[36] = replicate (third column), read-out: Percentage survival at 100um, 100 uM A

Row | SMILES | activity at 25 µM [9] | activity at 25 µM [10] | activity at 25 µM [11] | activity at 25 µM [12] | activity at 100 µM [13] | activity at 100 µM [14] | Percent fungal survival at 100 µM (replicate 2) | activity at 100 µM [15] | further results
1 | CC1CN(c2ncnc3c2c(-c2ccccc2)cn3-c2ccc(F)cc2)CC(C)O1 (centres unmarked) [MMV093250] |  |  |  |  |  |  |  |  | activity at 25 µM [1]: 63.7%; activity at 25 µM [2]: 69.5%; activity at 25 µM [3]: 65.3%; activity at 25 µM [4]: 56.2%; activity at 100 µM [5]: 70%; activity at 100 µM [6]: 65.7%; Percent fungal survival at 100 µM [7]: 80.7%; activity at 100 µM [8]: 63.6%
2 | COc1cc2c(O)c3c(c(-c4ccc5c(c4)OCO5)c2cc1OC)C(=O)OC3 [MMV102270] | 80.6% | 79.5% | 84.8% | 77.5% | 107% | 93.7% | 74.4% | 153% | 
3 | O=C(Nc1nnc(-c2ccc(Cl)cc2)o1)c1nc2ccccc2s1 [MMV102833] | 111% | 134% | 137% | 62.9% | 73.2% | 81.5% | 66.4% | 71.7% | 
4 | CC(C)Nc1ncnc2c1cnn2-c1ccc(Cl)cc1 [MMV108465] |  | 53.4% | 64.9% | 71.1% |  |  |  |  | activity at 25 µM [16]: 63.1%; activity at 100 µM [17]: 22.2%; activity at 100 µM [18]: 0.471%; activity at 100 µM [19]: 1.77%; activity at 100 µM [20]: 64.4%
5 | CCOc1ccc(C(=O)NCCc2ccccc2)cc1 [MMV124656] | 89.4% | 88.1% | 108% | 71.9% | 57.6% | 63.4% | 48.9% | 60.4% | 
6 | Clc1cccc(-c2nnc(-c3ccccc3)o2)c1 [MMV141011] |  | 78.3% | 72.5% | 50.5% |  |  |  |  | activity at 25 µM [16]: 67.1%; activity at 100 µM [17]: 67.1%; activity at 100 µM [18]: 58.8%; activity at 100 µM [19]: 65.1%; activity at 100 µM [20]: 77.6%
7 | NC1C2CC3CC(C2)CC1C3 (centres unmarked) [MMV180402] | 83.1% | 84.6% | 88.7% | 76% | 78% |  |  |  | activity at 100 µM [21]: 78.9%; activity at 100 µM [22]: 67.8%; activity at 100 µM [23]: 87.1%
8 | O=C(CC1Sc2ncnn2C1=O)Nc1ccc(Br)cc1 (centres unmarked) [MMV214956] | 63.2% | 56.2% | 60% | 73.5% | -1.13% | -7.27% | -0.0182% | 3.91% | 
9 | O=C(O)CSc1cc(NS(=O)(=O)c2cccc3cccnc23)c2ccccc2c1O [MMV218827] |  |  |  |  |  |  |  |  | activity at 25 µM [24]: 91.4%; activity at 25 µM [25]: 90.9%; activity at 25 µM [26]: 95.2%; activity at 25 µM [27]: 88.2%; activity at 100 µM [28]: 89.8%; activity at 100 µM [29]: 82.4%; activity at 100 µM [30]: 84.7%; activity at 100 µM [31]: 102%
10 | O=C(O)c1cc(-c2ccc(Br)cc2)nc2ccc(Cl)cc12 [MMV247764] |  |  |  |  |  |  |  |  | activity at 25 µM [24]: 73.4%; activity at 25 µM [25]: 82.6%; activity at 25 µM [26]: 78.8%; activity at 25 µM [27]: 58.9%; activity at 100 µM [28]: 54.4%; activity at 100 µM [29]: 60.9%; activity at 100 µM [30]: 52.4%; activity at 100 µM [31]: 49.8%
11 | O=S(=O)(Nc1ccc(O)cc1)c1cccc2cccnc12 [MMV251679] | 86.4% | 84.9% | 92.9% | 81.3% | 91.6% |  |  |  | activity at 100 µM [21]: 98.4%; activity at 100 µM [22]: 87.2%; activity at 100 µM [23]: 89.3%
12 | CCN1CCN(Cc2nc3ccc([N+](=O)[O-])cc3c(=O)n2-c2ccccc2F)CC1 [MMV275100] |  |  |  |  |  |  |  |  | activity at 25 µM [24]: 81.2%; activity at 25 µM [25]: 83%; activity at 25 µM [26]: 93.5%; activity at 25 µM [27]: 67.1%; activity at 100 µM [28]: 72.6%; activity at 100 µM [29]: 70.7%; activity at 100 µM [30]: 69.8%; activity at 100 µM [31]: 77.1%
13 | Oc1ccc2[nH]c(-c3ccccc3)nc2c1 [MMV292173] |  | 82.5% | 95.1% | 92% |  |  |  |  | activity at 25 µM [16]: 89.9%; activity at 100 µM [17]: 93.2%; activity at 100 µM [18]: 100%; activity at 100 µM [19]: 85.4%; activity at 100 µM [20]: 94.1%
14 | COc1ccc(CNC(=O)C(NS(=O)(=O)c2ccc3nc(C)sc3c2)C(C)C)cc1 (centres unmarked) [MMV303733] | 91.8% | 74.6% | 73.6% | 127% | 75.7% | 82.2% | 77.4% | 67.5% | 
15 | COc1ccc(NC(=O)c2cc3ccccn3n2)cc1 [MMV374187] | 100% | 94.6% | 115% | 90.7% | 65.8% | 52% | 60.6% | 84.9% | 
16 | Oc1cc(-c2cccc3ccccc23)[nH]n1 [MMV422940] |  | 89.3% | 79.4% | 70.9% |  |  |  |  | activity at 25 µM [32]: 79.9%; activity at 100 µM [33]: 81.4%; activity at 100 µM [34]: 88.2%; activity at 100 µM [35]: 73.6%; activity at 100 µM [36]: 82.2%
17 | O=C(O)C(Cc1c[nH]c2ccccc12)N1C(=O)c2ccccc2C1=O (centres unmarked) [MMV452821] | 80.9% | 99.3% | 91% | 52.5% | 96.8% | 102% | 95.7% | 92.9% | 
18 | NC(=O)c1ccccc1NC(=O)c1ccc(C(=O)Nc2ccccc2C(N)=O)cc1 [MMV508427] |  |  |  |  |  |  |  |  | activity at 25 µM [1]: 86.7%; activity at 25 µM [2]: 92%; activity at 25 µM [3]: 87.7%; activity at 25 µM [4]: 80.3%; activity at 100 µM [5]: 95.7%; activity at 100 µM [6]: 98.6%; Percent fungal survival at 100 µM [7]: 92.7%; activity at 100 µM [8]: 95.8%
19 | O=C(c1cc(O)nc2ccccc12)N1CCN(c2ccccc2)CC1 [MMV596723] | 81.5% | 85.3% | 92.8% | 66.3% | 79.5% |  |  |  | activity at 100 µM [21]: 83.7%; activity at 100 µM [22]: 80.5%; activity at 100 µM [23]: 74.4%
20 | COc1ccc(-n2cnc3cc(NCc4ccco4)ccc32)cc1 [MMV617332] | 61.8% | 70.4% | 107% | 7.47% | 7.71% |  |  |  | activity at 100 µM [21]: 18.3%; activity at 100 µM [22]: 3.66%; activity at 100 µM [23]: 1.23%
21 | CN(Cc1ccc(C(C)(C)C)cc1)Cc1cccc2ccccc12 [MMV637104] |  | 58.2% | -0.523% | 64.9% |  |  |  |  | activity at 25 µM [32]: 40.9%; activity at 100 µM [33]: 61.2%; activity at 100 µM [34]: 61.4%; activity at 100 µM [35]: 65.7%; activity at 100 µM [36]: 56.6%
22 | OC[C@@H]1CC[C@H](n2cnc3c(O)ncnc32)O1 [MMV637306] | 91.8% | 101% | 91% | 83.2% | 87.3% |  |  |  | activity at 100 µM [21]: 90.3%; activity at 100 µM [22]: 80.5%; activity at 100 µM [23]: 91.2%
